Literature values, collected in patent US5770699A, “Process for production of inhibited forms of activated blood factors” (COR Therapeutics, Inc., priority 1996, dated 1998).

Target: Factor Xa
Details: transient (reversible) inhibition of Factor Xa; stated as known; cited from earlier work

Q: Which Ki does the source give for `N=C(N)c1ccc2oc(CCc3cc4cc(C(=N)N)ccc4o3)cc2c1` [1,2-bis(5-amidino 2-benzofuranyl) ethane] here?
A: 0.57 µM
